{"source": "patent US20260240839A1", "about": "“Pharmaceutical composition of tetramethylpyrazine nitrone for injection and a method for manufacture thereof” (GUANGZHOU MAGPIE PHARMACEUTICALS CO., LTD., priority 2022, published 2026)", "assay": "Solution stability of tetramethylpyrazine nitrone in different solvents at 25° C.", "type": "physicochemical", "conditions": "for Total impurities / Content: 25° C.", "method": "Here, “NA” indicates not measured. “Total impurities” at 0 hour refer to that detected when API of tetramethylpyrazine nitrone is just prepared into a solution.\nIn 0.1 M HCl, the stability of tetramethylpyrazine nitrone compounds is low, and they begin to degrade as soon as they form a solution. After 3 hours, they completely degrade, and the total content of related substances reaches 100%.", "data": [{"smiles": "Cc1nc(C)c(/C=[N+](\\[O-])C(C)(C)C)nc1C", "note": "[tetramethylpyrazine nitrone]", "values": [{"measurement": "Total impurities", "setting": "0.1M HCl, 0 h", "value": 59.28, "unit": "%"}, {"measurement": "Content", "setting": "0.1M HCl, 3 h", "value": 0, "unit": "%"}, {"measurement": "Total impurities", "setting": "0.1M HCl, 3 h", "value": 100, "unit": "%"}, {"measurement": "Content", "setting": "0.1M HCl, 24 h", "value": 0, "unit": "%"}, {"measurement": "Total impurities", "setting": "0.1M HCl, 24 h", "value": 100, "unit": "%"}, {"measurement": "Total impurities", "setting": "0.1M NaOH, 0 h", "value": 17.78, "unit": "%"}, {"measurement": "Content", "setting": "0.1M NaOH, 3 h", "value": 81.8, "unit": "%"}, {"measurement": "Total impurities", "setting": "0.1M NaOH, 3 h", "value": 31.38, "unit": "%"}, {"measurement": "Content", "setting": "0.1M NaOH, 24 h", "value": 56.54, "unit": "%"}, {"measurement": "Total impurities", "setting": "0.1M NaOH, 24 h", "value": 49.23, "unit": "%"}, {"measurement": "Content", "setting": "Pure water, 0 h", "value": 100, "unit": "%"}, {"measurement": "Total impurities", "setting": "Pure water, 0 h", "value": 0.27, "unit": "%"}, {"measurement": "Content", "setting": "Pure water, 3 h", "value": 99.71, "unit": "%"}, {"measurement": "Total impurities", "setting": "Pure water, 3 h", "value": 0.39, "unit": "%"}, {"measurement": "Content", "setting": "Pure water, 24 h", "value": 98.54, "unit": "%"}, {"measurement": "Total impurities", "setting": "Pure water, 24 h", "value": 1.16, "unit": "%"}, {"measurement": "Stability in solution", "setting": "buffer solutions ranging from pH 6.0 to pH 7.4 at 25° C.", "value": "relatively stable"}, {"measurement": "Total impurities", "setting": "pH 4.5 Acetate buffer, 0 h", "value": 8.36, "unit": "%"}, {"measurement": "Content", "setting": "pH 4.5 Acetate buffer, 3 h", "value": 83.64, "unit": "%"}, {"measurement": "Total impurities", "setting": "pH 4.5 Acetate buffer, 3 h", "value": 23.6, "unit": "%"}, {"measurement": "Content", "setting": "pH 4.5 Acetate buffer, 24 h", "value": 60.56, "unit": "%"}, {"measurement": "Total impurities", "setting": "pH 4.5 Acetate buffer, 24 h", "value": 44.44, "unit": "%"}, {"measurement": "Content", "setting": "pH 6.0 phosphate buffer, 0 h", "value": 100, "unit": "%"}, {"measurement": "Total impurities", "setting": "pH 6.0 phosphate buffer, 0 h", "value": 0.33, "unit": "%"}, {"measurement": "Content", "setting": "pH 6.0 phosphate buffer, 3 h", "value": 98.39, "unit": "%"}, {"measurement": "Total impurities", "setting": "pH 6.0 phosphate buffer, 3 h", "value": 0.44, "unit": "%"}, {"measurement": "Content", "setting": "pH 6.0 phosphate buffer, 6 h", "value": 98.65, "unit": "%"}, {"measurement": "Total impurities", "setting": "pH 6.0 phosphate buffer, 6 h", "value": 0.9, "unit": "%"}, {"measurement": "Content", "setting": "pH 6.0 phosphate buffer, 24 h", "value": 96.62, "unit": "%"}, {"measurement": "Total impurities", "setting": "pH 6.0 phosphate buffer, 24 h", "value": 2.19, "unit": "%"}, {"measurement": "Content", "setting": "pH 6.4 Phosphate buffer, 0 h", "value": 100, "unit": "%"}, {"measurement": "Total impurities", "setting": "pH 6.4 Phosphate buffer, 0 h", "value": 0.31, "unit": "%"}, {"measurement": "Content", "setting": "pH 6.4 Phosphate buffer, 3 h", "value": 98.85, "unit": "%"}, {"measurement": "Total impurities", "setting": "pH 6.4 Phosphate buffer, 3 h", "value": 0.4, "unit": "%"}, {"measurement": "Content", "setting": "pH 6.4 Phosphate buffer, 24 h", "value": 97.78, "unit": "%"}, {"measurement": "Total impurities", "setting": "pH 6.4 Phosphate buffer, 24 h", "value": 0.93, "unit": "%"}, {"measurement": "Content", "setting": "pH 7.4 Phosphate buffer, 0 h", "value": 100, "unit": "%"}, {"measurement": "Total impurities", "setting": "pH 7.4 Phosphate buffer, 0 h", "value": 0.47, "unit": "%"}, {"measurement": "Content", "setting": "pH 7.4 Phosphate buffer, 3 h", "value": 100.83, "unit": "%"}, {"measurement": "Total impurities", "setting": "pH 7.4 Phosphate buffer, 3 h", "value": 0.39, "unit": "%"}, {"measurement": "Content", "setting": "pH 7.4 Phosphate buffer, 24 h", "value": 99.92, "unit": "%"}, {"measurement": "Total impurities", "setting": "pH 7.4 Phosphate buffer, 24 h", "value": 1, "unit": "%"}, {"measurement": "Stability in solution", "setting": "solutions with a pH lower than 6.0", "value": "low"}]}]}
